Measured values from patent US20220306587A1, “COMPOUNDS AND USE THEREOF FOR THE TREATMENT OF INFECTIOUS DISEASES AND CANCER” (AC BIOSCIENCE SA, priority 2019, published 2022).
Each block holds one molecule with its values, some of them ahead of it.

Legend:
[1] = target: T1, recombinant human Pyridoxal kinase (PDXK) (Homo sapiens, UniProt O00764); test: In vitro phosphorylation by recombinant human pyridoxal kinase (ADP formation, ADPglo luminescence); format: biochemical; details: 200 μM compound, 10 μg/ml rhPDXK, 1 mM ATP, 1 hour at 37° C.; FIG. 2
T1 sequence (O00764 1-312): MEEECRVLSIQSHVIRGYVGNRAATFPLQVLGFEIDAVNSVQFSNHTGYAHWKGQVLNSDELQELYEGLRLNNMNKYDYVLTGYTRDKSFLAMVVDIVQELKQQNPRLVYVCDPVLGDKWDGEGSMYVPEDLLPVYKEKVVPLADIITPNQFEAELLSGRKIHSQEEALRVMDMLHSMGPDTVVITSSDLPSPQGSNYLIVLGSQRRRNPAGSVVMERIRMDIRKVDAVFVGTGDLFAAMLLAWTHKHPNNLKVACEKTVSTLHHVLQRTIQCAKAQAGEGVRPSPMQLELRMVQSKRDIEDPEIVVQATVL
Description: ACB1906, A6770, 4-DOP (200 μM) and pyridoxal HCL (1 mM) were incubated with 10 μg/ml rhPDXK for 1 hour at 37° C. in the presence of 1 mM ATP containing—10 mM HEPES buffer with 0.05% Triton X-100, 0.01% Plurogenic F127, 25 μM Na3VO4 and 250 μM MgCl2. ADP formation was measured using the luminescence-based ADPglo kit from Promega. Statistical significance determined by Anova. *denotes p<0.05.
ACB1906's ability to be phosphorylated by recombinant human Pyridoxal kinase (PDXK) in vitro was compared to the structurally similar known imidazole S1PL inhibitor A6770, the PDXK and S1PL non-specific inhibitor 4-deoxypyridoxine (4-DOP) and the natural pyridoxal ligand. […] Increased phosphorylation of thiazole compounds confers an advantage in therapeutic applications as this would be a limiting step for its ability to effect a therapeutically relevant modulation in S1P levels.

[2] = target: T1, recombinant human Pyridoxal kinase (PDXK); details: already reported; cited from earlier work
[3] = target: T2, S1P lyase (Mus musculus, UniProt Q8R0X7); details: administered to mice; cited from earlier work
T2 construct: host or cells: mice (in vivo)
T2 sequence (Q8R0X7 1-568): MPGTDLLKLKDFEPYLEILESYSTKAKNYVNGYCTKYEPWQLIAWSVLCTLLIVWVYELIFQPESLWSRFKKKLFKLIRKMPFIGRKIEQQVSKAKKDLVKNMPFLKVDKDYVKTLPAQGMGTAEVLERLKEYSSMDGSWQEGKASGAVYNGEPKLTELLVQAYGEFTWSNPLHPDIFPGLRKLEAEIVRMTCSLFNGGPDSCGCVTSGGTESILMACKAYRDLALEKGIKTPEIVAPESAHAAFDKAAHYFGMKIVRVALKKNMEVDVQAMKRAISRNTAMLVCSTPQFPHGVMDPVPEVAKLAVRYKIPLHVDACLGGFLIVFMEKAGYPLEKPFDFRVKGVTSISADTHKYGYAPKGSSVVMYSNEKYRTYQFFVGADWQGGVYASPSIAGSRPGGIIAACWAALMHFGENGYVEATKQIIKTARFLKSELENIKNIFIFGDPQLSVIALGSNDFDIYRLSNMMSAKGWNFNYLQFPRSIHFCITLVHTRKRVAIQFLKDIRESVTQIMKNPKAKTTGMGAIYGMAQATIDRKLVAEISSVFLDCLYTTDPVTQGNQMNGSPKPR

- ability to be phosphorylated (ADP formation) in comparison to A6770 [1]: ~2 fold
Structure (SMILES): CC(=O)c1nc(CO)cs1 [Compound 6]

Structure (SMILES): CC(=O)c1nc(CO)c[nH]1 [Compound A6770, 1-(4-(Hydroxymethyl)-1H-imidazol-2-yl)ethan-1-one]
- phosphorylation by PDXK to A6770-P [2]: reported to phosphorylate

Structure (SMILES): CC(=O)c1nc([C@@H](O)[C@H](O)[C@H](O)CO)c[nH]1 [THI, 1-(4-((1R,2S,3R)-1,2,3,4-Tetrahydroxybutyl)-1H-imidazol-2-yl)ethan-1-one]
- S1P lyase activity [3]: inhibits S1P lyase activity
